The values below are quoted from earlier work in patent US20050074468A1, “Topical compositions containing nonimmunosuppressive cyclosporin derivatives for treating hair loss” (priority 2001, published 2005).

The subject of this series is mouse's back. To be noted: relative to minoxidil.

Regarding Cyclosporin A, the “hair regrowth effect superior to minoxidil” value is recorded as “about 100 times”.
